Laboratory results reported in publication PMC4144425, “Discovery of a novel iota carrageenan sulfatase isolated from the marine bacterium Pseudoalteromonas carrageenovora” (Frontiers in Chemistry, 2014).

Molecular target: T1, Recombinant ι-CgsA (Pseudoalteromonas carrageenovora, UniProt A0A2K4X859)
T1 construct: gene PCARR_a1089; without signal peptide (cleavage Ala22/Gln23 predicted in the Q3IKL4 ortholog), N-terminal 6 His-tag, pFO4 vector, E. coli BL21(DE3); primers for cloning deduced from the P. haloplanktis TAC 125 gene
Experiment: methylumbelliferone release, absorbance at […] nm; hyperbolic regression
Type: biochemical
Conditions: 35 °C, pH 8.3, 50 mM Tris-HCl, 200 mM NaCl; MUFS 5.2 to 206.5 μM; preliminary; read-out: Apparent Km

T1 sequence (A0A2K4X859 entry or part of it): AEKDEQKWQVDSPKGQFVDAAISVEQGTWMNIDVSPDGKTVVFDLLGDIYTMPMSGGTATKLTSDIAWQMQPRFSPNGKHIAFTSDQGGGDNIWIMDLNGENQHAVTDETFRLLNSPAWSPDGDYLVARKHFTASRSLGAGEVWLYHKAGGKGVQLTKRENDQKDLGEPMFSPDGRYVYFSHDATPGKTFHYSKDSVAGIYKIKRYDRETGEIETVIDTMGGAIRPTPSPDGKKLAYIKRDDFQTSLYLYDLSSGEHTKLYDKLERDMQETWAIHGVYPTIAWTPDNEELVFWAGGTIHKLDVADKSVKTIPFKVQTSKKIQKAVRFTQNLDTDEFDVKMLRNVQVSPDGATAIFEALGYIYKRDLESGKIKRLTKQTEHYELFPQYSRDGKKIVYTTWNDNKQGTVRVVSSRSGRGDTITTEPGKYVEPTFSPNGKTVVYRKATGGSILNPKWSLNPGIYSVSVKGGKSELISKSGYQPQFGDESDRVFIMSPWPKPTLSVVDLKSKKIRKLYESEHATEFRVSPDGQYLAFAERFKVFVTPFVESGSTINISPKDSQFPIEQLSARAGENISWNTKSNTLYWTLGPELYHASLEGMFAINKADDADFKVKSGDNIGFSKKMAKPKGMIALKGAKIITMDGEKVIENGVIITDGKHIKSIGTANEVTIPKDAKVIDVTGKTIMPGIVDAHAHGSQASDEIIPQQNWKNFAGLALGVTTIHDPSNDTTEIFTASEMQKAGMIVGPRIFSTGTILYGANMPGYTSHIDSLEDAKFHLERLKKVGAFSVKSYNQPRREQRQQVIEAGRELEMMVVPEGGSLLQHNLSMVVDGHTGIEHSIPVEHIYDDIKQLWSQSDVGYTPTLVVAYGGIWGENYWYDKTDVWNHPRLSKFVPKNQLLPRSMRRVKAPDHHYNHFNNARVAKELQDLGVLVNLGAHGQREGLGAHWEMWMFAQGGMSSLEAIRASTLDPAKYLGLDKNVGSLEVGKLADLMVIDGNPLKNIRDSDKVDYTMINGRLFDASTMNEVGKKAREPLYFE

With Cc1cc(=O)oc2cc(OS(=O)(=O)O)ccc12 [MUFS] the Km was 13.4 ± 4.9 µM.
